Where two headings read alike, the source gives them in different places.
What was measured:
PEX405 cells [1] = experiment: Catalase import immunofluorescence, high-content screening (% importing cells); format: cell-based, human; conditions: PEX405 cells, 3 days
Procedure: (§1) Primary fibroblasts were seeded at 500-700 cells per well in 384-well plates and grown at 37°C overnight. Cells were treated with test compounds or 0.1% DMSO for 3 days. After 3 days and a wash with PBS, cells were fixed with 4% paraformaldehyde (Electron Microscopy Sciences) in PBS for 20 minutes. After 3 washes with PBS, the cells were permeabilized and blocked with 0.3% Triton X-100, 1% BSA in PBS for 30 minutes at room temperature followed by 3 washes with 1% BSA in PBS. The cells were incubated with a rabbit Catalase polyclonal antibody (#12980 Cell signaling) overnight at 4°C. Following 3 washes with PBS containing 0.1% Tween-20, the cells were incubated for 1 h at room temperature with a conjugated goat anti-rabbit secondary antibody Alexa Fluor 647 (Ab150083-Abcam). The cells were then washed 3 times with PBS and Hoechst 33342 (H3570-ThermoFisher Scientific) + HCS Cellmask Blue (H32720 - ThermoFisher Scientific) staining was performed at 0.1 µg/ml and 0.4 µg/mL respectively for 30 minutes at room temperature. The cells were finally washed 3 times with PBS and fluorescent images were acquired using the INCell Analyzer 6000 imaging platform (GE Healthcare Life Sciences).
Images analysis was done using Columbus analysis software (PerkinElmer). DAPI channel was used to find nuclei (Hoechst 33342) and cytoplasm (HCS CellMask Blue) and border objects were removed. Cy5 channel (AlexaFluor 647) was used to find spots corresponding to peroxisomes which correctly import catalase. Cells were classified as importing or non-importing cells using a linear classifier method after training with images of wells containing Healthy cells and PEX1 deficient cells. The number of importing or non-importing cells was calculated. Finally, results were expressed as % of importing cells.
(§2) The cytotoxicity was assessed in parallel using a double nucleus staining with Hoechst 33342 and Propidium Iodide (PI).

PEX405 cells [2] = format: cell-based; conditions: 3 days, PI positive cells (dead cells)
Procedure: (§3) Images were acquired using the EnSight multimode plate reader (PerkinElmer) and analysis was done using Columbus analysis software (PerkinElmer). […] Then the total number of cells and the % of dead cells was calculated.
(§4) All HDAC inhibitors were tested at 1.3 and 10 µM for 3 days on GM16513 and PEX405 cells.

GM16513 cells [3] = experiment: Catalase import immunofluorescence, high-content screening (% importing cells); format: cell-based, human; conditions: GM16513 cells, 3 days; for EC50 / Emax: Homo sapiens, 72 h, dose response with 6 concentrations; for EC50: read-out: EC50; for Emax: read-out: Max Efficacy (% Importing cells)
Procedure: as §1
Images analysis was done using Columbus analysis software (PerkinElmer). DAPI channel was used to find nuclei (Hoechst 33342) and cytoplasm (HCS CellMask Blue) and border objects were removed. Cy5 channel (AlexaFluor 647) was used to find spots corresponding to peroxisomes which correctly import catalase. […] The number of importing or non-importing cells was calculated. Finally, results were expressed as % of importing cells.
as §2
The EC50 and maximum efficacy of these inhibitors were determined.

GM16513 cells [4] = format: cell-based; conditions: 3 days, PI positive cells (dead cells)
Procedure: as §3, §4

Compound	% Importing cells (PEX405 cells [1]; 1.3 µM) [%]	% Importing cells (PEX405 cells [1]; 10 µM) [%]	% PI+ cells (PEX405 cells [2]; 1.3 µM) [%]	% PI+ cells (PEX405 cells [2]; 10 µM) [%]	% Importing cells (GM16513 cells [3]; 1.3 µM) [%]	% Importing cells (GM16513 cells [3]; 10 µM) [%]	EC50 (GM16513 cells [3]) [nM]	Emax (GM16513 cells [3]) [%]	% PI+ cells (GM16513 cells [4]; 1.3 µM) [%]	% PI+ cells (GM16513 cells [4]; 10 µM) [%]
COc1ccc(-c2nc(N3CCOCC3)c3sc(CN(C)c4ncc(C(=O)NO)cn4)cc3n2)cn1 [Fimepinostat]	25	4	43	55	81	61	10	92.5	25	29
Oc1cc(O)cc(/C=C/c2c(O)cccc2O)c1 [Gnetol]	2	3	1	1	12	9			1	1
COc1ccc(/C=C/C(=O)NO)c(-c2ccc(-c3ccccc3)cc2)c1 [HDAC8-IN-1]	2	0	0	2	10	3			2	14
O=C(CCc1ccc(CN[C@H](C(=O)OC2CCCC2)C2CCCCC2)cn1)NO [HDAC-IN-3]	11	0	4	43	50	81			3	26
O=C(NO)c1ccc(CC(=O)N(CCO)c2ccccc2)cc1 [HPOB]	6	13	1	1	29	55			1	1
O=C(c1ccc(Cl)cc1Cl)n1nnc2ccccc21 [ITSA-1]	3	1	0	0	9	12			1	1
O=C(NO)c1ccc(Cn2c(=O)n(CCc3ccccc3)c(=O)c3ccccc32)cc1 [J22352]	5	3	0	2	30	47			1	3
O=C(NO)c1ccc(CN(c2cnccn2)c2cnccn2)cc1 [KA2507]	2	18	1	1	17	52	14300	100	1	2
Cc1cc(C)cc(C(=O)NOCCCCCC(=O)NO)c1 [LMK-235]	45	18	1	16	86	95			2	15
Cn1c(/C=C/C(=O)NO)ccc1/C=C/C(=O)c1cccc(F)c1 [MC1568]	5	6	0	91	25	21			3	90
O=C(NO)c1ccc(CNc2cccc3cccnc23)cc1 [MPT0G211]	6	19	1	2	29	65			1	4
O=C(/C=C/c1ccc(O)c(O)c1)c1ccc(O[C@@H]2O[C@H](CO)[C@@H](O)[C@H](O)[C@H]2O)c(O)c1O [Marein]	5	4	0	74	20	22			1	77
Nc1ccccc1NC(=O)c1ccc(CNc2nccc(-c3cccnc3)n2)cc1 [Mocetinostat]	15	9	3	29	60	39	250	50	4	9
Nc1ccccc1NC(=O)CCCCCC(=O)Nc1ccccc1 [NKL 22]	7	13	0	1	28	55			1	4
Nc1ccccc1NC(=O)c1ccc(Cn2cc(-c3ccc(C(=O)NCc4cccnc4)cc3)nn2)cc1 [Nampt-IN-3]	33	31	1	4	80	74			3	3
O=C(NO)c1cnc(N2C[C@@H]3[C@H](C2)[C@H]3NCc2ccc3cc(F)ccc3n2)nc1 [Nanatinostat]	14	0	15	54	88	78	50	93	12	37
CCCCN(Cc1ccc(C(=O)NO)cc1)C(=O)Nc1ccccc1 [Nexturastat A]	8	27	1	3	35	83			2	4
COc1ccc(Cn2ccc3ccc(C(=O)NO)cc32)cc1 [PCI-34051]	2	1	1	1	16	7			1	2
Cc1[nH]c2ccccc2c1CCNCc1ccc(/C=C/C(=O)NO)cc1 [Panobinostat]	6	18	48	49	86	44	3.14	93	30	32
Cc1ccc(NC(=O)CCCCCC(=O)Nc2ccccc2N)cc1 [Pimelic Diphenylamide 106]	4	17	1	2	22	52			1	3
CCCCc1nc2cc(/C=C/C(=O)NO)ccc2n1CCN(CC)CC [Pracinostat]	52	25	2	41	92	86	170	93	4	31

— patent EP4410284A1, “COMPOUND AND METHOD FOR THE TREATMENT OF ZELLWEGER SPECTRUM DISORDER” (Apteeus, priority 2023, dated 2024)
